Source: PubChem BioAssay (NCI)
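48-hour exposure; five concentrations; linearly interpolated endpoints. TGI: concentration producing complete growth inhibition.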

Columns and labels:
Assay in all cases: NCI tumour cell line growth inhibition, 48 h
P388/ADR leukemia = tested on: P388/ADR leukemia
OVCAR-5 ovarian = tested on: OVCAR-5 ovarian
RXF 393 renal = tested on: RXF 393 renal
UO-31 renal = tested on: UO-31 renal
SNB-78 CNS = tested on: SNB-78 CNS
K-562 leukemia = tested on: K-562 leukemia
DLD-1 colon = tested on: DLD-1 colon
SNB-75 CNS = tested on: SNB-75 CNS
HOP-62 NSCLC = tested on: HOP-62 NSCLC
HL-60(TB) leukemia = tested on: HL-60(TB) leukemia
A549 NSCLC = tested on: A549 NSCLC
SK-MEL-28 melanoma = tested on: SK-MEL-28 melanoma
HOP-18 NSCLC = tested on: HOP-18 NSCLC
CCRF-CEM leukemia = tested on: CCRF-CEM leukemia
SK-OV-3 ovarian = tested on: SK-OV-3 ovarian
NCI-H23 lung = tested on: NCI-H23 lung
M19-MEL melanoma = tested on: M19-MEL melanoma
SN12C renal = tested on: SN12C renal
HCC-2998 colon = tested on: HCC-2998 colon
SN12K1 renal = tested on: SN12K1 renal
P388 leukemia = tested on: P388 leukemia
NCI-H460 lung = tested on: NCI-H460 lung
HT29 colon = tested on: HT29 colon
SF-268 CNS = tested on: SF-268 CNS
SF-295 CNS = tested on: SF-295 CNS
UACC-62 melanoma = tested on: UACC-62 melanoma
HCT-116 colon = tested on: HCT-116 colon
MCF7 breast = tested on: MCF7 breast
UACC-257 melanoma = tested on: UACC-257 melanoma
MOLT-4 leukemia = tested on: MOLT-4 leukemia
RPMI-8226 leukemia = tested on: RPMI-8226 leukemia
COLO 205 colon = tested on: COLO 205 colon
HCT-15 colon = tested on: HCT-15 colon
HOP-92 NSCLC = tested on: HOP-92 NSCLC
MALME-3M melanoma = tested on: MALME-3M melanoma
A498 renal = tested on: A498 renal
EKVX NSCLC = tested on: EKVX NSCLC
NCI-H226 lung = tested on: NCI-H226 lung
CAKI-1 renal = tested on: CAKI-1 renal
U251 CNS = tested on: U251 CNS
OVCAR-4 ovarian = tested on: OVCAR-4 ovarian
SK-MEL-2 melanoma = tested on: SK-MEL-2 melanoma
SNB-19 CNS = tested on: SNB-19 CNS
LOX IMVI melanoma = tested on: LOX IMVI melanoma
SF-539 CNS = tested on: SF-539 CNS
KM20L2 colon = tested on: KM20L2 colon
OVCAR-3 ovarian = tested on: OVCAR-3 ovarian
OVCAR-8 ovarian = tested on: OVCAR-8 ovarian
DMS 273 small cell lung = tested on: DMS 273 small cell lung
DMS 114 small cell lung = tested on: DMS 114 small cell lung
SK-MEL-5 melanoma = tested on: SK-MEL-5 melanoma
NCI/ADR-RES ovarian = tested on: NCI/ADR-RES ovarian
KM12 colon = tested on: KM12 colon
SW-620 colon = tested on: SW-620 colon
NCI-H522 lung = tested on: NCI-H522 lung
IGROV1 ovarian = tested on: IGROV1 ovarian
XF 498 CNS = tested on: XF 498 CNS

`CN(C)CCNC(=O)c1cccc2[nH]c(-c3ccccn3)nc12` gave a TGI (P388/ADR leukemia) of 53.5 µM, a TGI (OVCAR-5 ovarian) of over 100 µM and a TGI (RXF 393 renal) of over 100 µM. It also gave a TGI (UO-31 renal) of over 72.4 µM, a TGI (SNB-78 CNS) of over 100 µM and a TGI (K-562 leukemia) of over 100 µM. For the same compound, the TGI (DLD-1 colon) was over 100 µM, the TGI (SNB-75 CNS) was 92.8 µM and the TGI (HOP-62 NSCLC) was over 90.8 µM. For the same compound, the TGI (HL-60(TB) leukemia) was over 78.7 µM, the TGI (A549 NSCLC) was over 100 µM and the TGI (SK-MEL-28 melanoma) was over 58 µM. The TGI (HOP-18 NSCLC) was over 87 µM, the TGI (CCRF-CEM leukemia) was over 100 µM and the TGI (SK-OV-3 ovarian) was over 100 µM. It also gave a TGI (NCI-H23 lung) of over 100 µM, a TGI (M19-MEL melanoma) of over 91.8 µM and a TGI (SN12C renal) of over 100 µM. For the same compound, the TGI (HCC-2998 colon) was over 100 µM, the TGI (SN12K1 renal) was over 100 µM and the TGI (P388 leukemia) was 34.7 µM. It also gave a TGI (NCI-H460 lung) of over 58.4 µM, a TGI (HT29 colon) of over 66.7 µM and a TGI (SF-268 CNS) of over 59.3 µM. It also gave a TGI (SF-295 CNS) of over 100 µM, a TGI (UACC-62 melanoma) of 42.7 µM and a TGI (HCT-116 colon) of over 65.2 µM. For the same compound, the TGI (MCF7 breast) was over 100 µM, the TGI (UACC-257 melanoma) was over 93.6 µM and the TGI (MOLT-4 leukemia) was 70.6 µM. The TGI (RPMI-8226 leukemia) was 62.3 µM, the TGI (COLO 205 colon) was 33.6 µM and the TGI (HCT-15 colon) was over 100 µM. It also gave a TGI (HOP-92 NSCLC) of 80.8 µM, a TGI (MALME-3M melanoma) of over 65.4 µM and a TGI (A498 renal) of over 94.8 µM. The TGI (EKVX NSCLC) was over 100 µM, the TGI (NCI-H226 lung) was 60.8 µM and the TGI (CAKI-1 renal) was 78.1 µM. It also gave a TGI (U251 CNS) of over 100 µM, a TGI (OVCAR-4 ovarian) of over 78.6 µM and a TGI (SK-MEL-2 melanoma) of over 100 µM. It also gave a TGI (SNB-19 CNS) of over 100 µM, a TGI (LOX IMVI melanoma) of over 90.1 µM and a TGI (SF-539 CNS) of over 100 µM. For the same compound, the TGI (KM20L2 colon) was over 100 µM, the TGI (OVCAR-3 ovarian) was over 100 µM and the TGI (OVCAR-8 ovarian) was over 100 µM. For the same compound, the TGI (DMS 273 small cell lung) was over 72.2 µM, the TGI (DMS 114 small cell lung) was over 80.2 µM and the TGI (SK-MEL-5 melanoma) was 48.7 µM. It also gave a TGI (NCI/ADR-RES ovarian) of over 87.7 µM, a TGI (KM12 colon) of over 100 µM and a TGI (SW-620 colon) of over 100 µM. The TGI (NCI-H522 lung) was over 63.8 µM, the TGI (IGROV1 ovarian) was over 100 µM and the TGI (XF 498 CNS) was over 100 µM.
